Reference: the OligoGym collection
After the bases stand the sugars from the 5' end (letter, count) and the backbone: PS all phosphorothioate, else s phosphorothioate and o phosphodiester by linkage. Methylation of C is not given here. e = 2'-O-(2-methoxyethyl) (MOE); k = constrained ethyl (cEt); d = 2'-deoxy (DNA); m = 2'-O-methyl

Molecular target: HSD17B13
Conditions: ASO, HepaRG

Sequence | target mRNA inhibition (1 µM) [%] | other results
TAAAGGTGGGATAAAC (sugars k3 d10 k3, PS) | 0 | –
TAAAGGTTTCTGTTGC (sugars k3 d10 k3, PS) | 66 | target mRNA inhibition (0.02 µM): 0%; target mRNA inhibition (0.078 µM): 9%; target mRNA inhibition (0.313 µM): 32%; target mRNA inhibition (1.25 µM): 67%; target mRNA inhibition (5 µM): 74%
TAAAGTGCTAAGTAGT (sugars k3 d10 k3, PS) | 50 | –
TAACCAATTATATGAG (sugars k3 d10 k3, PS) | 0 | –
TAACTACAAGAGGTTA (sugars k3 d10 k3, PS) | 22 | –
TAACTGAGTTATTCTC (sugars k3 d10 k3, PS) | 41 | –
TAAGATACCCAGGTTG (sugars k3 d9 k3 e1, PS) | 58 | –
TAAGATGTCCAGGCAT (sugars k3 d10 k3, PS) | 17 | –
TAAGCAGAATTGTGAA (sugars k3 d1 m1 d8 k3, PS) | 26 | –
TAAGCAGAATTGTGAA (sugars kkdddddddddkekek, PS) | 29 | –
TAAGCTGAGAGTTCTA (sugars k3 d9 k3 e1, PS) | 48 | –
TAAGTGTAAGAGACAT (sugars k3 d10 k3, PS) | 63 | –
TAATAATGGGCAGAGC (sugars k3 d10 k3, PS) | 30 | –
TAATACATTAGCAAGC (sugars k3 d9 k3 e1, PS) | 35 | –
TAATATTGAGGCACTG (sugars k3 d10 k3, PS) | 33 | –
TAATGGTAAACTGTAT (sugars k3 d10 k3, PS) | 32 | –
TAATTACAACCTGGTT (sugars k3 d10 k3, PS) | 52 | –
TAATTTTTGAGCCTAA (sugars k3 d10 k3, PS) | 41 | –
TACACTAATATTGAGG (sugars k3 d10 k3, PS) | 30 | –

Sequence | target mRNA inhibition (1 µM) [%] | other results
TACACTGACAACCCTT (sugars k3 d10 k3, PS) | 56 | –
TACAGATTGGAATGCT (sugars k3 d1 m1 d8 k3, PS) | 60 | –
TACAGATTGGAATGCT (sugars k3 d10 k3, PS) | 46 | –
TACAGTAGGCAGTTTC (sugars k3 d10 k3, PS) | 60 | –
TACATATCTTACTCTG (sugars k3 d10 k3, PS) | 40 | –
TACCACATACGCATGC (sugars k3 d10 k3, PS) | 33 | –
TACCTCTAAGTTAGCC (sugars k3 d9 k3 e1, PS) | 30 | –
TACCTCTAAGTTAGCC (sugars kkdddddddddkekek, PS) | 20 | –
TACGATGGAACAAAAA (sugars k3 d10 k3, PS) | 20 | –
TACTTGAACAGTCTTA (sugars kkdddddddddkekek, PS) | 60 | –
TAGAACACTTGCCTCA (sugars k3 d10 k3, PS) | 31 | –
TAGAACTCCCAACCCA (sugars k3 d10 k3, PS) | 44 | –
TAGAACTGTGTTGCTT (sugars k3 d10 k3, PS) | 78 | target mRNA inhibition (0.02 µM): 14%; target mRNA inhibition (0.078 µM): 27%; target mRNA inhibition (0.313 µM): 57%; target mRNA inhibition (1.25 µM): 78%; target mRNA inhibition (5 µM): 90%
TAGAATAGTCTTCAGC (sugars kkdddddddddkekek, PS) | 50 | –
TAGAGTCGGTCACCTT (sugars k3 d9 k3 e1, PS) | 59 | –
TAGCTGTGCACTCATT (sugars kkdddddddddkekek, PS) | 53 | –
TAGCTTTTGTCCACCT (sugars k3 d9 k3 e1, PS) | 65 | –
TAGGAACATTCCCTCT (sugars k3 d10 k3, PS) | 24 | –
TAGGCAGTAAAGTGCT (sugars k3 d10 k3, PS) | 48 | –

Sequence | target mRNA inhibition (1 µM) [%] | other results
TAGGGAGGTAGCTTTT (sugars k3 d10 k3, PS) | 46 | –
TAGTAATCACAAGTAA (sugars k3 d10 k3, PS) | 30 | –
TAGTCCATGCAAAAGC (sugars k3 d10 k3, PS) | 66 | –
TAGTGAACATACATTG (sugars k3 d10 k3, PS) | 23 | –
TAGTGCCAAACCAATG (sugars k3 d1 m1 d8 k3, PS) | 55 | –
TAGTGGACTTCATTAG (sugars k3 d1 m1 d8 k3, PS) | 34 | –
TAGTGGACTTCATTAG (sugars k3 d10 k3, PS) | 52 | –
TAGTGTAAGCTGAGAG (sugars k3 d1 m1 d8 k3, PS) | 31 | –
TAGTTAGAATAGTCTT (sugars k3 d10 k3, PS) | 23 | –
TAGTTATCTTCTCACT (sugars k3 d10 k3, PS) | 52 | –
TATAACTACAAGAGGT (sugars k3 d10 k3, PS) | 46 | –
TATACGATGGAACAAA (sugars k3 d10 k3, PS) | 4 | –
TATAGGTAGCTAATGT (sugars k3 d10 k3, PS) | 31 | –
TATAGTAATCACAAGT (sugars k3 d10 k3, PS) | 53 | –
TATAGTTATCTTCTCA (sugars k3 d1 m1 d8 k3, PS) | 33 | –
TATAGTTATCTTCTCA (sugars k3 d10 k3, PS) | 46 | –
TATATACTAGGATTAG (sugars k3 d10 k3, PS) | 10 | –
TATATGTTGATGTTAC (sugars k3 d10 k3, PS) | 34 | –
TATCAACCTGCACACC (sugars k3 d10 k3, PS) | 62 | –
